Measurements reported in ChEMBL document CHEMBL1201862, “PubChem BioAssay data set” (2004).
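Grown in 96-well plates, cells were treated for 48 hours with each compound at five concentrations. Insufficient inhibition: endpoint recorded as highest concentration tested. GI50: concentration for 50% inhibition of growth.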 The source made the active and inactive calls. Rule as the data show it: active = GI50 up to about 1.1 µM and inactive = higher.

What was measured:
Assay in all cases: NCI anticancer screen, dose series, 48 h
[1] = system: 786-0
[2] = system: A498
[3] = system: A549
[4] = system: ACHN
[5] = system: CAKI-1
[6] = system: CCRF-CEM
[7] = system: COLO 205
[8] = system: DU-145
[9] = system: HCT-116
[10] = system: HCT-15
[11] = system: HL-60
[12] = system: HOP-62
[13] = system: HOP-92
[14] = system: Hs-578T
[15] = system: IGROV-1
[16] = system: K562
[17] = system: KM12
[18] = system: LOX IMVI
[19] = system: M14
[20] = system: MCF7
[21] = system: MDA-MB-231
[22] = system: MDA-MB-435
[23] = system: MDA-N
[24] = system: MOLT-4
[25] = system: NCI-H226
[26] = system: NCI-H23
[27] = system: NCI-H460
[28] = system: NCI-H522
[29] = system: NCI/ADR-RES
[30] = system: OVCAR-3
[31] = system: OVCAR-5
[32] = system: OVCAR-8
[33] = system: PC-3
[34] = system: RPMI-8226
[35] = system: RXF 393
[36] = system: SF-268
[37] = system: SF-295
[38] = system: SF-539
[39] = system: SK-MEL-2
[40] = system: SK-MEL-5
[41] = system: SK-OV-3
[42] = system: SN12C
[43] = system: SNB-19
[44] = system: SR
[45] = system: SW-620
[46] = system: T47D
[47] = system: U-251
[48] = system: UACC-257
[49] = system: UACC-62
[50] = system: UO-31
[51] = system: EKVX
[52] = system: HCC 2998
[53] = system: HT-29
[54] = system: Malme-3M
[55] = system: OVCAR-4
[56] = system: SK-MEL-28
[57] = system: SNB-75
[58] = system: TK-10

CO/N=C(/C)c1cccc(Nc2nc3ccc(Cl)cc3c3[nH]c4ccccc4c23)c1
GI50 [1]: 6.79 µM (inactive)
GI50 [2]: 4.29 µM (inactive)
GI50 [3]: 12.8 µM (inactive)
GI50 [4]: 3.74 µM (inactive)
GI50 [5]: 10.4 µM (inactive)
GI50 [6]: 23 µM (inactive)
GI50 [7]: 5.87 µM (inactive)
GI50 [8]: 12.2 µM (inactive)
GI50 [9]: 4.21 µM (inactive)
GI50 [10]: 9.73 µM
GI50 [11]: 13.2 µM (inactive)
GI50 [12]: 11.7 µM (inactive)
GI50 [13]: 3.65 µM (inactive)
GI50 [14]: 16.7 µM (inactive)
GI50 [15]: 10.6 µM (inactive)
GI50 [16]: 3.13 µM (inactive)
GI50 [17]: 3.97 µM (inactive)
GI50 [18]: 11.2 µM (inactive)
GI50 [19]: 6.92 µM (inactive)
GI50 [20]: 10.3 µM (inactive)
GI50 [21]: 13.4 µM (inactive)
GI50 [22]: 8.57 µM (inactive)
GI50 [23]: 11.8 µM (inactive)
GI50 [24]: 5.13 µM (inactive)
GI50 [25]: 12.5 µM (inactive)
GI50 [26]: 11.5 µM (inactive)
GI50 [27]: 4.31 µM (inactive)
GI50 [28]: 4.75 µM (inactive)
GI50 [29]: 14.3 µM (inactive)
GI50 [30]: 4.62 µM (inactive)
GI50 [31]: 7.31 µM (inactive)
GI50 [32]: 8 µM (inactive)
GI50 [33]: 14 µM (inactive)
GI50 [34]: 3.2 µM (inactive)
GI50 [35]: 1.52 µM (inactive)
GI50 [36]: 13 µM (inactive)
GI50 [37]: 4.08 µM (inactive)
GI50 [38]: 15.6 µM (inactive)
GI50 [39]: 13.2 µM (inactive)
GI50 [40]: 3.2 µM (inactive)
GI50 [41]: 21.8 µM (inactive)
GI50 [42]: 11 µM (inactive)
GI50 [43]: 15 µM (inactive)
GI50 [44]: 4.72 µM (inactive)
GI50 [45]: 6.08 µM (inactive)
GI50 [46]: 2.47 µM (inactive)
GI50 [47]: 13.6 µM (inactive)
GI50 [48]: 14.5 µM (inactive)
GI50 [49]: 6.59 µM (inactive)
GI50 [50]: 9.46 µM (inactive)

C=C(COCO)C(C)=O
GI50 [1]: 12 µM (inactive)
GI50 [2]: 27.9 µM (inactive)
GI50 [3]: 26 µM (inactive)
GI50 [4]: 15.7 µM (inactive)
GI50 [5]: 2.5 µM (inactive)
GI50 [6]: 2.86 µM (inactive)
GI50 [7]: 7.52 µM (inactive)
GI50 [8]: 26 µM (inactive)
GI50 [51]: 20.4 µM (inactive)
GI50 [52]: 27.9 µM (inactive)
GI50 [9]: 13.5 µM (inactive)
GI50 [10]: 21.4 µM
GI50 [11]: 3.48 µM (inactive)
GI50 [12]: > 47.1 µM (inactive)
GI50 [13]: 27 µM (inactive)
GI50 [53]: 17.7 µM (inactive)
GI50 [14]: 23.9 µM (inactive)
GI50 [15]: 20.1 µM (inactive)
GI50 [16]: 3.45 µM (inactive)
GI50 [17]: > 40.3 µM (inactive)
GI50 [18]: 15.9 µM (inactive)
GI50 [19]: 13 µM (inactive)
GI50 [20]: 16.3 µM (inactive)
GI50 [21]: 18.8 µM (inactive)
GI50 [22]: 14.2 µM (inactive)
GI50 [23]: 16.9 µM (inactive)
GI50 [24]: 2.66 µM (inactive)
GI50 [54]: 9.73 µM (inactive)
GI50 [25]: > 61 µM (inactive)
GI50 [26]: 17.5 µM (inactive)
GI50 [27]: 22 µM (inactive)
GI50 [28]: 2.14 µM (inactive)
GI50 [29]: 22.4 µM (inactive)
GI50 [30]: 11.6 µM (inactive)
GI50 [55]: 17.9 µM (inactive)
GI50 [31]: 20.5 µM (inactive)
GI50 [32]: 8.51 µM (inactive)
GI50 [33]: 19.1 µM (inactive)
GI50 [34]: 2.94 µM (inactive)
GI50 [35]: 14.3 µM (inactive)
GI50 [36]: 20 µM (inactive)
GI50 [37]: > 75 µM (inactive)
GI50 [38]: 6.24 µM (inactive)
GI50 [56]: 16.8 µM (inactive)
GI50 [39]: 22.8 µM (inactive)
GI50 [40]: 17.5 µM (inactive)
GI50 [41]: 48.9 µM (inactive)
GI50 [42]: 18.4 µM (inactive)
GI50 [43]: > 66.8 µM (inactive)
GI50 [57]: 16.3 µM (inactive)
GI50 [45]: 3.3 µM (inactive)
GI50 [46]: 15.7 µM (inactive)
GI50 [58]: 13.7 µM (inactive)
GI50 [47]: 24.5 µM (inactive)
GI50 [48]: 15.3 µM (inactive)
GI50 [49]: 17.2 µM (inactive)
GI50 [50]: 12.2 µM (inactive)
